Source: the kinase profiling compilation of Christmann-Franck et al. (2016)

Experiments:
Experiment in all cases: KINOMEscan competition binding
EPHA7 (human) = EPHA7 (human) (UniProt Q15375); settings: compound 10.0 µM
SGK110 (human) = SGK110 (human) (UniProt P0C264); settings: compound 10.0 µM
ACVR2B (human) = ACVR2B (human) (UniProt Q13705); settings: compound 10.0 µM
MET (human) = MET (human) (UniProt P08581); settings: compound 10.0 µM
LYN (human) = LYN (human) (UniProt P07948); settings: compound 10.0 µM
RAF1 (human) = RAF1 (human) (UniProt P04049); settings: compound 10.0 µM
AAK1 (human) = AAK1 (human) (UniProt Q2M2I8); settings: compound 10.0 µM
Chain of AAK1 (human) (Q2M2I8 whole entry, looked up): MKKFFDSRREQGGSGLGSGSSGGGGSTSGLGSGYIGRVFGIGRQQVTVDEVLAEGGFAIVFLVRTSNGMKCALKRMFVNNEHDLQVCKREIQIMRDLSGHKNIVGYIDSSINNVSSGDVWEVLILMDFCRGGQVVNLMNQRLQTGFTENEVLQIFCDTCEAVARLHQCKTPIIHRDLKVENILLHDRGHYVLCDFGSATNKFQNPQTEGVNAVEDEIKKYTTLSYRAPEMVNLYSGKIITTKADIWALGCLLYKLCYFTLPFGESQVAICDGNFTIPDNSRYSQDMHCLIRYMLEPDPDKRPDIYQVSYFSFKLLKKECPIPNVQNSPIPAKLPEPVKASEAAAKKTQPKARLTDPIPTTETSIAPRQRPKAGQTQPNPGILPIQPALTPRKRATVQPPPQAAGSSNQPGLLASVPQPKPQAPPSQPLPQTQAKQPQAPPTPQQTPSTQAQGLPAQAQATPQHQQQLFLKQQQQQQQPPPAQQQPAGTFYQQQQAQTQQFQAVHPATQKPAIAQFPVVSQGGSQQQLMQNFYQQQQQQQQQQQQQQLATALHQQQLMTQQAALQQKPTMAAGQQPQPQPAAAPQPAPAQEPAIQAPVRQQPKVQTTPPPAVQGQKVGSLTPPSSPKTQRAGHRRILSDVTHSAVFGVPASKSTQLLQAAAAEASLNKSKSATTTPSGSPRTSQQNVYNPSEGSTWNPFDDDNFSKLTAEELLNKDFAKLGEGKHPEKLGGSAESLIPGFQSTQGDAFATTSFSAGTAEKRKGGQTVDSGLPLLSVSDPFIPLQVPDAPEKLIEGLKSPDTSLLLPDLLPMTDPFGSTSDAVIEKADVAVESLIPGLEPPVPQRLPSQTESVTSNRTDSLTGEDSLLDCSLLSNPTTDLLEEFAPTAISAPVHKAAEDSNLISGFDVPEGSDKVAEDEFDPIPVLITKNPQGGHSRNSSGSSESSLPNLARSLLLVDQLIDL

MELK (human) = MELK (human) (UniProt Q14680); settings: compound 10.0 µM
NLK (human) = NLK (human) (UniProt Q9UBE8); settings: compound 10.0 µM
ULK3 (human) = ULK3 (human) (UniProt Q6PHR2); settings: compound 10.0 µM
CLK4 (human) = CLK4 (human) (UniProt Q9HAZ1); settings: compound 10.0 µM
CDK14 (human) = CDK14 (human) (UniProt O94921); settings: compound 10.0 µM
CDK18 (human) = CDK18 (human) (UniProt Q07002); settings: compound 10.0 µM
CLK1 (human) = CLK1 (human) (UniProt P49759); settings: for kinase still bound, per cent of control: compound 10.0 µM
Chain of CLK1 (human) (P49759 whole entry, looked up): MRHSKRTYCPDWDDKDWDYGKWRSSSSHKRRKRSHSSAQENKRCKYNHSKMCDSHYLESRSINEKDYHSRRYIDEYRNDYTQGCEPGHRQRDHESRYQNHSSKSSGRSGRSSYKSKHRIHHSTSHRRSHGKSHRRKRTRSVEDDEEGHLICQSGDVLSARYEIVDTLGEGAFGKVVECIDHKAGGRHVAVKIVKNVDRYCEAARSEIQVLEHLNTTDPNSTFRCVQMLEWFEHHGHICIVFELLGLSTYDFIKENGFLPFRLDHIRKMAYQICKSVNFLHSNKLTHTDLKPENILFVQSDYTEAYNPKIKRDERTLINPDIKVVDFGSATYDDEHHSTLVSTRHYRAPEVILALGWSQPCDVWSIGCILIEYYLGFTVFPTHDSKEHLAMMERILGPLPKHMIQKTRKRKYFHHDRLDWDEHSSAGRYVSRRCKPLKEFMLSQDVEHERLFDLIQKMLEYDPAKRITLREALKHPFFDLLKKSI

CSNK2A2 (human) = CSNK2A2 (human) (UniProt P19784); settings: for kinase still bound, per cent of control: compound 10.0 µM
Chain of CSNK2A2 (human) (P19784 whole entry, looked up): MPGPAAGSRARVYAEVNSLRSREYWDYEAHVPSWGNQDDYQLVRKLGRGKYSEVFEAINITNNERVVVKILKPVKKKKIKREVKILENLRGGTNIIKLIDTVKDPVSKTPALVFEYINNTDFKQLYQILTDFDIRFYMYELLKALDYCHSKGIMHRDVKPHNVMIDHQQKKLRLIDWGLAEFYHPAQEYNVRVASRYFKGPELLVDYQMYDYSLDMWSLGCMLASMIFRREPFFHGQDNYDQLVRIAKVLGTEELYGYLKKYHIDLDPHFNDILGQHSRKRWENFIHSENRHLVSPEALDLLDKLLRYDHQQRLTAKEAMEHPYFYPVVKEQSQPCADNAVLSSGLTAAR

TAOK1 (human) = TAOK1 (human) (UniProt Q7L7X3); settings: compound 10.0 µM
TEK (human) = TEK (human) (UniProt Q02763); settings: compound 10.0 µM
MAP2K4 (human) = MAP2K4 (human) (UniProt P45985); settings: compound 10.0 µM
STK16 (human) = STK16 (human) (UniProt O75716); settings: compound 10.0 µM
Chain of STK16 (human) (O75716 whole entry, looked up): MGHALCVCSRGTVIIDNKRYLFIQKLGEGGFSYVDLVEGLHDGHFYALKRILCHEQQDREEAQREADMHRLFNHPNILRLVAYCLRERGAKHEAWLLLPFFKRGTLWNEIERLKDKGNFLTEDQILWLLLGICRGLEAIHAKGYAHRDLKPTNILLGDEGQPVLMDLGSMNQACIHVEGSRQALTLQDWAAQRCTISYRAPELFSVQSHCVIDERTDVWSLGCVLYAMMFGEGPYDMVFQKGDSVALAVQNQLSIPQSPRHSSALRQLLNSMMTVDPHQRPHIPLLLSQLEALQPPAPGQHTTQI

PRKCQ (human) = PRKCQ (human) (UniProt Q04759); settings: compound 10.0 µM
CDK16 (human) = CDK16 (human) (UniProt Q00536); settings: compound 10.0 µM
[1] = test system: KIT (human), P10721 [V559D/V654A]; settings: compound 10.0 µM
CAMK1D (human) = CAMK1D (human) (UniProt Q8IU85); settings: compound 10.0 µM
Chain of CAMK1D (human) (Q8IU85 whole entry, looked up): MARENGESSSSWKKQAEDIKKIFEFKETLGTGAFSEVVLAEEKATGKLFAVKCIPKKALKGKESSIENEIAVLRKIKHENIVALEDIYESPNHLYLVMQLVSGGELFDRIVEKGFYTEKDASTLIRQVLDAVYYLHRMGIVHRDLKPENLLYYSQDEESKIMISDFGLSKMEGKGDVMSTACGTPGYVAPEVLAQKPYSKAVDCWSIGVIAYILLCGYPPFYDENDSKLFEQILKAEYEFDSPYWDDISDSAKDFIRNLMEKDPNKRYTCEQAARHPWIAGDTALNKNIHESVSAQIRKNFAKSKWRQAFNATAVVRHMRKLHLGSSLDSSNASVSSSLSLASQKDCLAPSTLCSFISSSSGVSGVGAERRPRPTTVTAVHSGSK

DAPK3 (human) = DAPK3 (human) (UniProt O43293); settings: compound 10.0 µM
RPS6KA1 KD1 (human) = RPS6KA1 KD1 (human) (UniProt Q15418); settings: compound 10.0 µM
TEC (human) = TEC (human) (UniProt P42680); settings: compound 10.0 µM
[2] = test system: EGFR (human), P00533 [G719C; 746-750 del]; settings: compound 10.0 µM
CDK2 (human) = CDK2 (human) (UniProt P24941); settings: compound 10.0 µM
SIK2 (human) = SIK2 (human) (UniProt Q9H0K1); settings: compound 10.0 µM
PIM3 (human) = PIM3 (human) (UniProt Q86V86); settings: for kinase still bound, per cent of control: compound 10.0 µM
[3] = test system: EIF2AK4 KD2 (human), Q9P2K8 [S808G]; settings: compound 10.0 µM
LATS2 (human) = LATS2 (human) (UniProt Q9NRM7); settings: compound 10.0 µM
AKT2 (human) = AKT2 (human) (UniProt P31751); settings: compound 10.0 µM
DAPK2 (human) = DAPK2 (human) (UniProt Q9UIK4); settings: for kinase still bound, per cent of control: compound 10.0 µM
Chain of DAPK2 (human) (Q9UIK4 whole entry, looked up): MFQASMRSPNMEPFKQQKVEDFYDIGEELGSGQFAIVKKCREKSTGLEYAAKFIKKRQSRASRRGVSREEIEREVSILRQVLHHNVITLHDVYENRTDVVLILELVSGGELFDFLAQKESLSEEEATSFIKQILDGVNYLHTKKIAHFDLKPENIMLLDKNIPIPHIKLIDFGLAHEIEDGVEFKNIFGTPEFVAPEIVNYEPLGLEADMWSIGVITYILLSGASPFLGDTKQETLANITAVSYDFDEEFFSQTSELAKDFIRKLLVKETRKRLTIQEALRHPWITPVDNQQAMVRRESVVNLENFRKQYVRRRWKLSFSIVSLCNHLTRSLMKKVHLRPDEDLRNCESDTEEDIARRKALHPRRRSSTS

PRKCH (human) = PRKCH (human) (UniProt P24723); settings: compound 10.0 µM
[4] = test system: PIK3CA (human), P42336 [E545K]; settings: compound 10.0 µM
Chain of PIK3CA (human), P42336 [E545K] (P42336 whole entry E545K, looked up): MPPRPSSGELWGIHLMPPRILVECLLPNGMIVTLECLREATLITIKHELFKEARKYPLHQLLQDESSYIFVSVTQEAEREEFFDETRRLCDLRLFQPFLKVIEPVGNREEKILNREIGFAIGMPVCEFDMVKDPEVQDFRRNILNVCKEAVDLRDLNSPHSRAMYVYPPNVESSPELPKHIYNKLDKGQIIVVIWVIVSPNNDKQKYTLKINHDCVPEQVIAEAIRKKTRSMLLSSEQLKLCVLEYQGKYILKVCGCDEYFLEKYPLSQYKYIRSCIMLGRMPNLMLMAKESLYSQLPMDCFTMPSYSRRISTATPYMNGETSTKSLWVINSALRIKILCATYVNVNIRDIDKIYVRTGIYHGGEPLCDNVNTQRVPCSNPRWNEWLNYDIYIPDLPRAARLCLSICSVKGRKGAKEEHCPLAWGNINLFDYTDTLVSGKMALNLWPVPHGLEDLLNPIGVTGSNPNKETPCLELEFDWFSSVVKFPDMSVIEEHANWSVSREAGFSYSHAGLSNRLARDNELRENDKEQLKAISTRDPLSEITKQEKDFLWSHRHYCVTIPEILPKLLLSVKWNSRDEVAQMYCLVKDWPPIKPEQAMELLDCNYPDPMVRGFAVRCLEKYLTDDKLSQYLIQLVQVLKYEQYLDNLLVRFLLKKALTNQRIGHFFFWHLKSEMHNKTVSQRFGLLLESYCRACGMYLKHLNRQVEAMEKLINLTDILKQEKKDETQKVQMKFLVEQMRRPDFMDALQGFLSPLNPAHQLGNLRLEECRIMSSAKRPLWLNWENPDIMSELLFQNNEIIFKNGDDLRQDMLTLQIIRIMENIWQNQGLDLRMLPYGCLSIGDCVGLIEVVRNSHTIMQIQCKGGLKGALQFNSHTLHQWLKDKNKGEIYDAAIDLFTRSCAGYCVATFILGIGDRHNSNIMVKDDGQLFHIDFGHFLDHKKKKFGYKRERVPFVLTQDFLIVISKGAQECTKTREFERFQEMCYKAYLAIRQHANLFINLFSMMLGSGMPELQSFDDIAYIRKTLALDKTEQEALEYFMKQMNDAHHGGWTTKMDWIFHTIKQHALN

TNIK (human) = TNIK (human) (UniProt Q9UKE5); settings: compound 10.0 µM
DYRK1B (human) = DYRK1B (human) (UniProt Q9Y463); settings: compound 10.0 µM
DCLK2 (human) = DCLK2 (human) (UniProt Q8N568); settings: compound 10.0 µM
Chain of DCLK2 (human) (Q8N568 whole entry, looked up): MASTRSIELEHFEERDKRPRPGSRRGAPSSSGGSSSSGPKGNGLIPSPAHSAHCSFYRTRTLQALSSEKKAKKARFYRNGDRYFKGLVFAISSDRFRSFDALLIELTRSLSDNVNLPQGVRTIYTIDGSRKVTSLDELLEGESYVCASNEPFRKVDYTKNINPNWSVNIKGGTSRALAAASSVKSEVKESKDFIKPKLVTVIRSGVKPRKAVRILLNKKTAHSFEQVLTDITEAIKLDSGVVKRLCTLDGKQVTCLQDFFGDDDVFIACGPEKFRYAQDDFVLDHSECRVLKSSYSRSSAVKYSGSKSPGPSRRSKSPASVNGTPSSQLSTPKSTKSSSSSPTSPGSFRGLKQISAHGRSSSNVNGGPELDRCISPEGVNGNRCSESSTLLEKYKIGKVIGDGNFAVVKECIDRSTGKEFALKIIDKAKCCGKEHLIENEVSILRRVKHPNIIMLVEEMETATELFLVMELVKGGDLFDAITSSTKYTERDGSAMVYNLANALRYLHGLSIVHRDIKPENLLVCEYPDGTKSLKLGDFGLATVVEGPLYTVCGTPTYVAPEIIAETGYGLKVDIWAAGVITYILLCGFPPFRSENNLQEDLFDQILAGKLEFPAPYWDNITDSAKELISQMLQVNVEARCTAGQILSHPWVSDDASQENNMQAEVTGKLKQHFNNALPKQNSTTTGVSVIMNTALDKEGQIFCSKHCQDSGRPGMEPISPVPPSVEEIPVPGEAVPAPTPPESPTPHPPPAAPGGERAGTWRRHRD

MAP3K5 (human) = MAP3K5 (human) (UniProt Q99683); settings: compound 10.0 µM
[5] = test system: EGFR (human), P00533 [747-751 del / S ins]; settings: compound 10.0 µM
TLK1 (human) = TLK1 (human) (UniProt Q9UKI8); settings: compound 10.0 µM

SMILES: COc1cc(N2CCN(C)CC2)ccc1Nc1ncc2c(n1)Nc1ccccc1NC2=O
- kinase still bound, per cent of control (EPHA7 (human)): 100%
- kinase still bound, per cent of control (SGK110 (human)): 97%
- kinase still bound, per cent of control (ACVR2B (human)): 52%
- kinase still bound, per cent of control (MET (human)): 82%
- kinase still bound, per cent of control (LYN (human)): 77%
- kinase still bound, per cent of control (RAF1 (human)): 89%
- kinase still bound, per cent of control (AAK1 (human)): 75%
- kinase still bound, per cent of control (MELK (human)): 64%
- kinase still bound, per cent of control (NLK (human)): 100%
- kinase still bound, per cent of control (ULK3 (human)): 95%
- kinase still bound, per cent of control (CLK4 (human)): 94%
- kinase still bound, per cent of control (CDK14 (human)): 100%
- kinase still bound, per cent of control (CDK18 (human)): 86%
- kinase still bound, per cent of control (CLK1 (human)): 100%
- kinase still bound, per cent of control (CSNK2A2 (human)): 100%
- kinase still bound, per cent of control (TAOK1 (human)): 2.9%
- kinase still bound, per cent of control (TEK (human)): 100%
- kinase still bound, per cent of control (MAP2K4 (human)): 93%
- kinase still bound, per cent of control (STK16 (human)): 100%
- kinase still bound, per cent of control (PRKCQ (human)): 59%
- kinase still bound, per cent of control (CDK16 (human)): 94%
- kinase still bound, per cent of control [1]: 88%
- kinase still bound, per cent of control (CAMK1D (human)): 100%
- kinase still bound, per cent of control (DAPK3 (human)): 90%
- kinase still bound, per cent of control (RPS6KA1 KD1 (human)): 96%
- kinase still bound, per cent of control (TEC (human)): 87%
- kinase still bound, per cent of control [2]: 39%
- kinase still bound, per cent of control (CDK2 (human)): 100%
- kinase still bound, per cent of control (SIK2 (human)): 82%
- kinase still bound, per cent of control (PIM3 (human)): 75%
- kinase still bound, per cent of control [3]: 12%
- kinase still bound, per cent of control (LATS2 (human)): 89%
- kinase still bound, per cent of control (AKT2 (human)): 100%
- kinase still bound, per cent of control (DAPK2 (human)): 95%
- kinase still bound, per cent of control (PRKCH (human)): 96%
- kinase still bound, per cent of control [4]: 100%
- kinase still bound, per cent of control (TNIK (human)): 82%
- kinase still bound, per cent of control (DYRK1B (human)): 79%
- kinase still bound, per cent of control (DCLK2 (human)): 89%
- kinase still bound, per cent of control (MAP3K5 (human)): 100%
- kinase still bound, per cent of control [5]: 62%
- kinase still bound, per cent of control (TLK1 (human)): 70%

SMILES: O=C1NC(=O)/C(=C/c2c[nH]c(=O)c(-c3ccc(N4CCNCC4)nc3)c2)S1
- kinase still bound, per cent of control (EPHA7 (human)): 97%
- kinase still bound, per cent of control (SGK110 (human)): 100%
- kinase still bound, per cent of control (ACVR2B (human)): 36%
- kinase still bound, per cent of control (MET (human)): 97%
- kinase still bound, per cent of control (LYN (human)): 77%
- kinase still bound, per cent of control (RAF1 (human)): 94%
- kinase still bound, per cent of control (AAK1 (human)): 2.4%
- kinase still bound, per cent of control (MELK (human)): 24%
- kinase still bound, per cent of control (NLK (human)): 97%
- kinase still bound, per cent of control (ULK3 (human)): 100%
- kinase still bound, per cent of control (CLK4 (human)): 15%
- kinase still bound, per cent of control (CDK14 (human)): 73%
- kinase still bound, per cent of control (CDK18 (human)): 82%
- Kd (CLK1 (human)): 240 nM
- kinase still bound, per cent of control (CLK1 (human)): 0.3%
- Kd (CSNK2A2 (human)): 6.1 nM
- kinase still bound, per cent of control (CSNK2A2 (human)): 0%
- kinase still bound, per cent of control (TAOK1 (human)): 24%
- kinase still bound, per cent of control (TEK (human)): 100%
- kinase still bound, per cent of control (MAP2K4 (human)): 57%
- kinase still bound, per cent of control (STK16 (human)): 36%
- kinase still bound, per cent of control (PRKCQ (human)): 44%
- kinase still bound, per cent of control (CDK16 (human)): 70%
- kinase still bound, per cent of control [1]: 99%
- kinase still bound, per cent of control (CAMK1D (human)): 48%
- kinase still bound, per cent of control (DAPK3 (human)): 1%
- kinase still bound, per cent of control (RPS6KA1 KD1 (human)): 71%
- kinase still bound, per cent of control (TEC (human)): 84%
- kinase still bound, per cent of control [2]: 95%
- kinase still bound, per cent of control (CDK2 (human)): 73%
- kinase still bound, per cent of control (SIK2 (human)): 76%
- Kd (PIM3 (human)): 3.7 nM
- kinase still bound, per cent of control (PIM3 (human)): 0.65%
- kinase still bound, per cent of control [3]: 2.6%
- kinase still bound, per cent of control (LATS2 (human)): 100%
- kinase still bound, per cent of control (AKT2 (human)): 100%
- Kd (DAPK2 (human)): 6.1 nM
- kinase still bound, per cent of control (DAPK2 (human)): 0.5%
- kinase still bound, per cent of control (PRKCH (human)): 100%
- kinase still bound, per cent of control [4]: 37%
- kinase still bound, per cent of control (TNIK (human)): 11%
- kinase still bound, per cent of control (DYRK1B (human)): 3%
- kinase still bound, per cent of control (DCLK2 (human)): 67%
- kinase still bound, per cent of control (MAP3K5 (human)): 100%
- kinase still bound, per cent of control [5]: 85%
- kinase still bound, per cent of control (TLK1 (human)): 66%
